Laboratory results: patent US10526418B2, “Modulators of ACYL-COA lysocardiolipin acyltransferase 1 (ALCAT1) and uses thereof” (priority 2012, dated 2020)

Tests used:
[1] = tested on: MFN1 and MFN2 expression in C2C12 cells; test: Western blot analysis of MFN1 and MFN2 expression in C2C12 cells stably expressing ALCAT1 or vector control, treated with H2O2; type: cell-based
Method: FIG. 7G: Western blot analysis of MFN1 and MFN2 expression in C2C12 cells stably expressing vector, ALCAT1, or ALCAT1 but were pretreated various doses (0, 1M, and 5M) of diphenyliodonium (DPI), an NADPH oxidase inhibitor, prior to treatment with 1.5 mM of H2O2.
The C2C12-A1 cells and vector control were treated with increasing doses of H2O2 as used in FIG. 7E, followed by analysis of MFN2 expression by western blot analysis.

[2] = tested on: phosphorylation of Akt and Erk in H9c2 cells; test: Western blot analysis of phosphorylation of Akt and Erk in H9c2 cardiac cells stimulated with insulin; type: cell-based; details: vector control H9c2 cells, indicated doses of insulin, FIG. 17A
Method: FIGS. 17A-17B: H9c2 cardiac cells stably expressing ALCAT1 or vector control were stimulated with indicated doses of insulin (FIG. 17A) or with 100 nM of T3 for the indicated time (FIG. 17B), followed by analysis of phosphorylation of Akt, Erk, S6K1, and 4E-BP by western blot analysis using β-actin as an internal control. FIG. 17C: WT and KO mice were treated with vehicle or T4 for 28 days, followed by Western blot analysis of phosphorylation of Akt, GSK3α/β, and 4E-BP in cardiomyocytes by Western blot analysis using GAPDH as an internal control.
Oxidative Stress by ALCAT1 Regulates Akt-mTOR Signal Transduction Pathways in Cardiomyopathy: Hyperthyroidism leads to cardiomyopathy by stimulating protein synthesis in the cardiomyocytes. To identify molecular mechanisms underlying a role of ALCAT1 in hypertrophic growth, the effects of ALCAT1 overexpression and deficiency were analyzed on signal transduction pathways involved in cellular growth and proliferation, including phosphorylation of Akt, Erk, S6K, and 4E-BP1, in H9c2 cells and in mice with hyperthyroidism. Increased ROS levels lead to insulin resistance which plays a causative role in cardiac dysfunction. […] In support of the findings in H9c2 cells, short term treatment of mice with thyroid hormone stimulated cardiac Akt-mTOR phosphorylation in both ALCAT1 knockout mice and the WT mice (FIG. 20).

Compound: OO [H2O2, Hydrogen Peroxide]
- MFN1 and MFN2 expression ([1]; vector control C2C12 cells, increasing doses of H2O2, FIG. 7F): dose-dependently depleted MFN1 and MFN2 expression

Compound: insulin: hormone used to stimulate Akt and Erk phosphorylation in H9c2 cells
- phosphorylation of Akt and Erk [2]: dose-dependently stimulated phosphorylation of Akt and Erk

Compound: c1ccc2c(c1)[I+]c1ccccc1-2 [DPI, diphenyleneiodonium]
- loss of MFN expression in response to H2O2 ([1]; C2C12-A1 cells (stably expressing ALCAT1) pre-incubated with DPI (0, 1M, and 5M) prior to 1.5 mM H2O2, FIG. 7G): dose-dependently prevented the loss of MFN expression
